Experimental data as given in patent US11931351B2, “(S)-3-[1-methylpyrrolidin-2-yl]pyridine, analogues thereof, precursors thereof, or its derivatives, for the use as a pharmaceutical in form of a parenteral administration and a process for the preparation of an injectable substance” (priority 2019, dated 2024).
Converted amounts (≈) assume the structure as drawn.

Legend:
[1] = tested on: WI-38 cells; assay: cells; conditions: Homo sapiens, WI-38, 96 h, read-out: concentration that inhibits 50% of the proliferation
[2] = after 72 h treatment, n=10 per group; compared to antimicrobians/antimycotics (group B) and no treatment (group C)
[3] = tested on: HS-683 cells; assay: cells; conditions: Homo sapiens, Hs 683, 96 h, read-out: concentration that inhibits 50% of the proliferation
[4] = in vitro; conditions: human, peripheral blood leukocytes (PBLs)
Experimental: (§1) Thereby, cell viability was determined on the basis of the mitochondria-dependent reduction of MTT (3-[4,5-dimethyltiazol 2yl]-2,5-diphenyltetrazolium bromide) to formazan. […] Next cells were treated with 20 μl of MTT. After 3 hours of incubation at 37° C., the formazan blue formed in the cells was dissolved in 100 μl of SDS (sodium dodecylsulfate) for 3 hours in 37° C. The optical density was measured at 570 nm.
(§2) After the cytotoxicity tests LC50 (LC50-lethal concentration, 50%-dose required to kill half of the cells after a specified test duration) were estimated for each cell lines and PBLs (leukocytes of peripheral blood). Additionally for PBLs LC10 and LC5 were calculated.
(§3) On the basis of the results of MTT assay for human leukocytes the LC50, LC10 and LC5 were evaluated.

[5] = tested on: IL-6 production; conditions: human PBLs; 1 mg/ml, 500 μg/ml, 300 μg/ml
[6] = tested on: WI-38 cells; conditions: WI-38, 96 hours incubation, MTT
[7] = in vitro; conditions: human, A549 cells (lung adenocarcinoma epithelial cell line)
Experimental: (§4) In a further example cytotoxicity tests were performed with three different cell lines (FIG. 2a, 2b, 2c): • WI-38 (human diploid cell line from normal embryonic lung tissue) • A549 (human lung adenocarcinoma epithelial cell line) and • HS683 (human neuronal glioma cell line).
as §1
(§5) After the cytotoxicity tests LC50 (LC50-lethal concentration, 50%-dose required to kill half of the cells after a specified test duration) were estimated for each cell lines and PBLs (leukocytes of peripheral blood).

[8] = tested on: H1N1 virus; conditions: 0,002 mg/kg each 24 hours; 24 hours after treatment; versus control group
[9] = tested on: human PBLs (leukocytes of peripheral blood); conditions: MTT, 48 hours
Experimental: as §1, §2, §3

[10] = tested on: A549 cells; assay: cells; conditions: Homo sapiens, A549, 96 h, read-out: concentration that inhibits 50% of the proliferation
[11] = background statement; cited from earlier work
[12] = tested on: HS-683 cells; conditions: HS-683, 96 hours incubation, MTT
[13] = tested on: WI-38, A549 and HS 683; assay: cells; conditions: Homo sapiens, read-out: doses that inhibit 50% of cell proliferation (summary)
[14] = in vitro; conditions: human, HS683 cells (neuronal glioma cell line)
Experimental: as §4, §1, §5

[15] = tested on: A549 cells; conditions: A549, 96 hours incubation, MTT
[16] = background statement; cited from earlier work; remark: listed apart in the source
[17] = in vitro; conditions: human, WI-38 cells (normal embryonic lung diploid cell line)
Experimental: as §4, §1, §5

## CN1CCC[C@H]1c1cccnc1 [(S)-3-[1-Methylpyrrolidin-2-yl]pyridine]
[1]
  IC50: 1000 mg/L (≈ 6.16 mM)
[2]
  healing effect on ulcer: increased healing effect
[3]
  IC50: 2900 mg/L (≈ 17.9 mM)
[4]
  CC50 at 48 h: 7000 mg/L (≈ 43.1 mM)
[5]
  effect on IL-6 production: no effect
[6]
  concentration that inhibits 99% of the proliferation: 4.5 mg/mL
[7]
  CC50 at 48 h: 4500 mg/L (≈ 27.7 mM)
[8]
  egg production of H1N1 infected chicken: began to lay off eggs
[9]
  LC5: 0.5 mg/mL
  LC10: 1000 mg/L (≈ 6.16 mM)
[10]
  IC50: 2000 mg/L (≈ 12.3 mM)
[11]
  miscibility with water: miscible with water
  solubility in alcohol, ether or light petroleum: readily soluble
[12]
  concentration that inhibits 99% of the proliferation: 5.5 mg/mL
[13]
  IC50: > 1000 mg/L
[14]
  CC50 at 48 h: 3500 mg/L (≈ 21.6 mM)
[15]
  concentration that inhibits 99% of the proliferation: 5.5 mg/mL
[16]
  half-life in the body: approximately two
[17]
  CC50 at 48 h: 3000 mg/L (≈ 18.5 mM)
